Experimental data published in ChEMBL document CHEMBL1921769, “Synthesis and docking study of 2-phenylaminopyrimidine Abl tyrosine kinase inhibitors” (Bioorg Med Chem Lett, 2011).
pIC50: −log10 of the molar value.

target: Tyrosine-protein kinase ABL1 (Homo sapiens, UniProt P00519); assay: Inhibition of Abl using DAIpYAAPFAKKK phosphopeptide as substrate by MALDI-MS analysis
Sequence (P00519 whole entry): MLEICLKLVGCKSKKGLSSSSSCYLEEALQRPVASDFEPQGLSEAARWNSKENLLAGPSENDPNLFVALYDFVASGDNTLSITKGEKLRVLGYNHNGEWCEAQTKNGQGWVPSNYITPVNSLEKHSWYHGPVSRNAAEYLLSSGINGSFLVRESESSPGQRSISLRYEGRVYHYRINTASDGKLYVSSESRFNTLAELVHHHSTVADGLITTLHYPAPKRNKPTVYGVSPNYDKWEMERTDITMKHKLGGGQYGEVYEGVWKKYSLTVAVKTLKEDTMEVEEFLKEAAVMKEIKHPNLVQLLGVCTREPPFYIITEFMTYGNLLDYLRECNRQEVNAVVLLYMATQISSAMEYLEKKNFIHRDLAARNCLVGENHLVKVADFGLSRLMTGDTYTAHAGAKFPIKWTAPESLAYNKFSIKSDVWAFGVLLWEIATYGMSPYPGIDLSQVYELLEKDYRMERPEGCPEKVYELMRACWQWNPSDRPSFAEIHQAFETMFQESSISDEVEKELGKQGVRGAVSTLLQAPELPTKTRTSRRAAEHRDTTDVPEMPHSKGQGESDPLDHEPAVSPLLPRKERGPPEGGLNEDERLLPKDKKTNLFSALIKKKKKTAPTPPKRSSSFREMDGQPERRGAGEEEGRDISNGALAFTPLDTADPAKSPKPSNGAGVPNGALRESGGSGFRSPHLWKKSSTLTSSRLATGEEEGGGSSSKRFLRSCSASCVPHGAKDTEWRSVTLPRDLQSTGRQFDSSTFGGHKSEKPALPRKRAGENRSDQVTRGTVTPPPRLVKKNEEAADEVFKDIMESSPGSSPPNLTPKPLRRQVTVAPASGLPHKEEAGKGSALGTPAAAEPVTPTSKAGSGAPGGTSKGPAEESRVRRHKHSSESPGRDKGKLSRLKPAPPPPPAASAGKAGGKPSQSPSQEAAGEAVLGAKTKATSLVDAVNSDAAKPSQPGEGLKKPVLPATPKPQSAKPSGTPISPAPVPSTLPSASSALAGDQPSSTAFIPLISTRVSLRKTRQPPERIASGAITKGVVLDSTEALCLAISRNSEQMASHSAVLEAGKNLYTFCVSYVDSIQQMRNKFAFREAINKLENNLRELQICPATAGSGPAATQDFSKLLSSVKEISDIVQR

| pIC50 | SMILES |
| --- | --- |
| 4.90 | Cc1ccc(NC(=O)c2ccccc2)cc1Nc1nccc(-c2cccnc2)n1 |
| 5.96 | CSc1cccc(C(=O)Nc2ccc(C)c(Nc3nccc(-c4cccnc4)n3)c2)c1 |
| < 4.60 | Cc1ccc(NC(=O)c2ccc(N)c(N)c2)cc1Nc1nccc(-c2cccnc2)n1 |
